According to patent US9475816B2, “Substituted-1,4-dihydropyrazolo[4,3-b]indoles” (TAKEDA PHARMACEUTICAL COMPANY LIMITED, priority 2012, dated 2016):
pIC50: −log10 of the molar value.

Key:
[1] = genetically and diet-induced obese mice; cited from earlier work
human MetAP2 enzyme [2] = biological target: T1, human MetAP2 enzyme (Homo sapiens, UniProt P50579); experiment: MetAP2 enzyme assay, MetAP2 enzyme complexed with cobalt ions; conditions: MetAP2 Co pIC50, 10 μM CoCl2; -log(IC50), IC50 molar
human MetAP2 enzyme [3] = biological target: T1, human MetAP2 enzyme; experiment: MetAP2 enzyme assay, MetAP2 enzyme complexed with manganese ions; conditions: MetAP2 Mn pIC50, 10 μM MnCl2; -log(IC50), IC50 molar
[4] = mice; cited from earlier work
angiogenesis = conditions: cited from earlier work

T1 sequence (P50579 whole entry): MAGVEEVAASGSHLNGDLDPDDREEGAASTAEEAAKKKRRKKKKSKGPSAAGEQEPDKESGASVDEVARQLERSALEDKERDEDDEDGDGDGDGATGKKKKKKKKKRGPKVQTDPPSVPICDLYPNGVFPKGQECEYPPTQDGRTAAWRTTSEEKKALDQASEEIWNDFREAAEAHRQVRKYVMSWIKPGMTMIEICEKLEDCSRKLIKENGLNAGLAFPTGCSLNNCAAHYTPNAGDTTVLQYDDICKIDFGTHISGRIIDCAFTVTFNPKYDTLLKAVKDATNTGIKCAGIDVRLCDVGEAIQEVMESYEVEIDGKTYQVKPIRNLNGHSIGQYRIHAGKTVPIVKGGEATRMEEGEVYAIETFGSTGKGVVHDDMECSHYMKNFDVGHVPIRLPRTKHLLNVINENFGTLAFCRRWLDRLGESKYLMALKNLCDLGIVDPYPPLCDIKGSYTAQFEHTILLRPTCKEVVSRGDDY

| Compound | pIC50 (human MetAP2 enzyme [2]) | pIC50 (human MetAP2 enzyme [3]) | food intake, body weight, fat mass, size of adipocytes [1] | effect on diet-induced obesity [4] | angiogenesis (angiogenesis) |
| --- | --- | --- | --- | --- | --- |
| beloranib hemioxalate [CKD-732] | – | – | decrease food intake, body weight, fat mass, and the size of adipocytes | – | – |
| Cc1c(-n2c3ccc(F)cc3c3[nH]ncc32)cnc2[nH]c(=O)[nH]c12 [Example 28, 6-(7-Fluoropyrazolo[4,3-b]indol-4(1H)-yl)-7-methyl-1H-imidazo[4,5-b]pyridin-2(3H)-one] | 8.20 | 8.30 | – | – | – |
| COc1ccc(-n2c3ccc(F)cc3c3[nH]ncc32)c(C)n1 [Example 69, 7-Fluoro-4-(6-methoxy-2-methylpyridin-3-yl)-1,4-dihydropyrazolo[4,3-b]indole] | 7.70 | 8.30 | – | – | – |
| Cc1nc(N2CC[C@H](O)C2)ncc1-n1c2ccc(F)cc2c2[nH]ncc21 [Example 55, (S)-1-(5-(7-Fluoropyrazolo[4,3-b]indol-4(1H)-yl)-4-methylpyrimidin-2-yl)pyrrolidin-3-ol] | 7.60 | 7.80 | – | – | – |
| CNC(=O)[C@@H]1CCCN1c1ncc(-n2c3ccc(F)cc3c3[nH]ncc32)c(C)n1 [Example 38, (2S)-1-(5-(7-Fluoropyrazolo[4,3-b]indol-4(1H)-yl)-4-methylpyrimidin-2-yl)-N-methylpyrrolidine-2-carboxamide] | 8.20 | 8.10 | – | – | – |
| CN1CCN(c2cc(-n3c4ccc(F)cc4c4[nH]ncc43)ccn2)CC1 [Example 8, 7-Fluoro-4-(2-(4-methylpiperazin-1-yl)pyridin-4-yl)-1,4-dihydropyrazolo[4,3-b]indole] | 7.60 | 8.30 | – | – | – |
| Cc1nc(N2CC(F)(F)C2)ncc1-n1c2ccc(F)cc2c2[nH]ncc21 [Example 43, 4-(2-(3,3-Difluoroazetidin-1-yl)-4-methylpyrimidin-5-yl)-7-fluoro-1,4-dihydropyrazolo[4,3-b]indole] | 7.90 | 7.90 | – | – | – |
| Cc1nc2c(cc1-n1c3ccc(F)cc3c3[nH]ncc31)[nH]c(=O)n2C[C@H](O)CO [Example 33, 3-((S)-2,3-Dihydroxypropyl)-6-(7-fluoropyrazolo[4,3-b]indol-4(1H)-yl)-5-methyl-1H-imidazo[4,5-b]pyridin-2(3H)-one] | 8.10 | 8.00 | – | – | – |
| Cc1nc(N)ccc1-n1c2ccc(F)cc2c2[nH]ncc21 [Example 42, 5-(7-Fluoropyrazolo[4,3-b]indol-4(1H)-yl)-6-methylpyridin-2-amine] | 8.00 | 7.80 | – | – | – |
| Cc1cccc(-n2c3ccc(F)cc3c3[nH]ncc32)n1 [Example 11, 7-Fluoro-4-(6-methylpyridin-2-yl)-1,4-dihydropyrazolo[4,3-b]indole] | 7.00 | 8.20 | – | – | – |
| CO[C@@H]1[C@H](OC(=O)/C=C/C=C/C=C/C=C/C(=O)O)CC[C@]2(CO2)[C@H]1[C@@]1(C)O[C@@H]1CC=C(C)C [fumagillin] | – | – | – | impair diet-induced obesity | inhibit angiogenesis |
| Cc1nc(N2CCC(CO)CC2)ncc1-n1c2ccc(F)cc2c2[nH]ncc21 [Example 59, (1-(5-(7-Fluoropyrazolo[4,3-b]indol-4(1H)-yl)-4-methylpyrimidin-2-yl)piperidin-4-yl)methanol] | 7.90 | 8.00 | – | – | – |
| Cc1c(-n2c3ccc(F)cc3c3[nH]ncc32)ccc2nn(C)cc12 [Example 9, 4-(2,4-Dimethyl-2H-indazol-5-yl)-7-fluoro-1,4-dihydropyrazolo[4,3-b]indole] | 8.00 | 8.20 | – | – | – |
| Cc1nc(N2CCC(C#N)CC2)ncc1-n1c2ccc(F)cc2c2[nH]ncc21 [Example 56, 1-(5-(7-Fluoropyrazolo[4,3-b]indol-4(1H)-yl)-4-methylpyrimidin-2-yl)piperidine-4-carbonitrile] | 7.90 | 8.10 | – | – | – |
| Cc1cc2[nH]ncc2cc1-n1c2ccc(F)cc2c2[nH]ncc21 [Example 19, 7-Fluoro-4-(6-methyl-1H-indazol-5-yl)-1,4-dihydropyrazolo[4,3-b]indole] | 7.90 | 7.90 | – | – | – |

More lines, main results first:

| pIC50 (human MetAP2 enzyme [2]) | pIC50 (human MetAP2 enzyme [3]) | Compound | food intake, body weight, fat mass, size of adipocytes [1] | effect on diet-induced obesity [4] | angiogenesis (angiogenesis) |
| --- | --- | --- | --- | --- | --- |
| 8.30 | 8.30 | Cc1nc(N2C[C@H]3C[C@H]3[C@@H]2C(N)=O)ncc1-n1c2ccc(F)cc2c2[nH]ncc21 [Example 135, (1R,2R,5S)-3-(5-(7-Fluoropyrazolo[4,3-b]indol-4(1H)-yl)-4-methylpyrimidin-2-yl)-3-azabicyclo[3.1.0]hexane-2-carboxamide] | – | – | – |
| 7.90 | 8.00 | Cc1c(-n2c3ccc(F)cc3c3[nH]ncc32)ccc2[nH]ncc12 [Example 71, 7-Fluoro-4-(4-methyl-1H-indazol-5-yl)-1,4-dihydropyrazolo[4,3-b]indole] | – | – | – |
| 8.10 | 8.00 | Cc1nc(N2CCO[C@@H](CO)C2)ncc1-n1c2ccc(F)cc2c2[nH]ncc21 [Example 77, ((2R)-4-(5-(7-Fluoropyrazolo[4,3-b]indol-4(1H)-yl)-4-methylpyrimidin-2-yl)morpholin-2-yl)methanol] | – | – | – |
| 8.00 | 7.90 | Cc1nc(C(=O)NCC(N)=O)ccc1-n1c2ccc(F)cc2c2[nH]ncc21 [Example 124, N-(2-Amino-2-oxoethyl)-5-(7-fluoropyrazolo[4,3-b]indol-4(1H)-yl)-6-methylpicolinamide] | – | – | – |
| 8.00 | 7.90 | Cc1cc(C(=O)NC2(CO)CC2)ncc1-n1c2ccc(F)cc2c2[nH]ncc21 [Example 104, 5-(7-Fluoropyrazolo[4,3-b]indol-4(1H)-yl)-N-(1-(hydroxymethyl)cyclopropyl)-4-methylpicolinamide] | – | – | – |
| 7.60 | 8.00 | Cn1nc(C(=O)NCCO)cc1-n1c2ccc(F)cc2c2[nH]ncc21 [Example 88, 5-(7-Fluoropyrazolo[4,3-b]indol-4(1H)-yl)-N-(2-hydroxyethyl)-1-methyl-1H-pyrazole-3-carboxamide] | – | – | – |
| 8.00 | 8.10 | Cc1nc(NCCO)ncc1-n1c2ccc(F)cc2c2[nH]ncc21 [Example 74, 2-((5-(7-Fluoropyrazolo[4,3-b]indol-4(1H)-yl)-4-methylpyrimidin-2-yl)amino)ethanol] | – | – | – |
| 7.50 | 7.70 | Cc1cc(C(=O)NCCO)ncc1-n1c2ccc(F)cc2c2[nH]ncc21 [Example 95, 5-(7-Fluoropyrazolo[4,3-b]indol-4(1H)-yl)-N-(2-hydroxyethyl)-4-methylpicolinamide] | – | – | – |
